Test results from US20080214648A1, “Hiv Prodrugs Cleavable by Cd26” (priority 2003, published 2008).

Experiments:
CD26 in bovine serum = target: T1, CD26 in bovine serum (Bos taurus, UniProt P81425); test: Inhibition of GP-pNA conversion to pNA by 2% bovine serum in PBS; format: biochemical; details: 2% BS in PBS, compared with purified CD26
T1 construct: Conversion of GP-pNA to pNA by two percent BS in PBS; from tissue; host or cells: bovine serum, 2% in PBS
Experimental: (§1) The CD26 catalytic reaction was measured by recording the increase of absorption caused by pNA release at 400 nm.

CD26 = CD26 (Homo sapiens, UniProt P27487); test: Competitive inhibition of CD26-catalysed conversion of GP-pNA to GP+pNA (purified CD26); format: biochemical
Chain of CD26 (P27487 whole entry, species assumed): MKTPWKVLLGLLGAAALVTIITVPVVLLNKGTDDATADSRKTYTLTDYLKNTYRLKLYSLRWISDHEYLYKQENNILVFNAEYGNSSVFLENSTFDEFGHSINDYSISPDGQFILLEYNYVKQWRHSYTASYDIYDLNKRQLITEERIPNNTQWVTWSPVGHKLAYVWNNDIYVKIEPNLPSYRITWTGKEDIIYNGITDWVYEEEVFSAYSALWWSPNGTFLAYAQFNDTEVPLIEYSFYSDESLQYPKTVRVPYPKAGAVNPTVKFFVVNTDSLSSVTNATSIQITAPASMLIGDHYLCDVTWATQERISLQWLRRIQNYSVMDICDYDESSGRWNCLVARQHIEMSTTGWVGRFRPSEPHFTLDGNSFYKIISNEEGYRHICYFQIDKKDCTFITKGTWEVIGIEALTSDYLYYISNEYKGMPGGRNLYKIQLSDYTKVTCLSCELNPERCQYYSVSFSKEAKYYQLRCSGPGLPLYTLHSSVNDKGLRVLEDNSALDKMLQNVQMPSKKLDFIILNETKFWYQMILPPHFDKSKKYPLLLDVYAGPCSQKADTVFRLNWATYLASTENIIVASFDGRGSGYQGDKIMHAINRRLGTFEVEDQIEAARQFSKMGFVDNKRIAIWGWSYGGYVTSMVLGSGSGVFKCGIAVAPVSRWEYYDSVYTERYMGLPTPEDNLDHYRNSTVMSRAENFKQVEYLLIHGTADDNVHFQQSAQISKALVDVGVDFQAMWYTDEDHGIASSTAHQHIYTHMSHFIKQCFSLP
Experimental: as §1

[1] = Conversion of Val-Pro-PI 1 to PI 1 by human serum diluted in PBS; format: in vitro ADME; details: 2% human serum (HS) in PBS
Experimental: (§2) A: CD26; B: bovine serum; C: human serum (both 10% in PBS).
(§3) FIG. 3a: Bovine serum (2% in PBS), FIG. 3b: Human serum (2% in PBS).
(§4) Ten percent BS or HS converted 40 to 70% of Val-Pro-PI 1 to PI 1 in one hour (FIG. 10). Two percent BS and HS converted Val-Pro-PI 1 to PI 1 by 8% and 25%, respectively. After 4 hrs, 35% and 95% of compound was hydrolyzed by BS and HS, respectively (FIG. 11).
(§5) Compounds were separated on a Reverse Phase RP-8 (Merck) using a gradient with buffer A (50 mM NaH2PO4+5 mM heptane sulfonic acid pH 3.2) and buffer B (acetonitrile).
(§6) 0→2 min: 2% buffer B; 2→8 min: 20% buffer B; 8→10 min: 25% buffer B; 10→12 min: 35% buffer B; 12→30 min: 50% buffer B; 30→35 min: 50% buffer B; 35→40 min: 2% buffer B; 40→45 min: 2% buffer B. Rt values of Val-Pro-PI 1 and PI 1 were 18.7 and 17.7 min, respectively.

purified CD26 = purified CD26 (Homo sapiens, UniProt P27487); test: Conversion of Val-Pro-PI 1 to PI 1 by purified CD26; format: biochemical
Chain of purified CD26 (P27487 whole entry, species assumed): as above
Experimental: as §2, §4, §5, §6

CD26 in human serum = target: T2, CD26 in human serum (Homo sapiens, UniProt P27487); test: Inhibition of GP-pNA conversion to pNA by 2% human serum in PBS; format: biochemical; details: HS 2% in PBS
T2 construct: from tissue; host or cells: human serum, 2% in PBS
T2 sequence (P27487 39-766 limits assumed): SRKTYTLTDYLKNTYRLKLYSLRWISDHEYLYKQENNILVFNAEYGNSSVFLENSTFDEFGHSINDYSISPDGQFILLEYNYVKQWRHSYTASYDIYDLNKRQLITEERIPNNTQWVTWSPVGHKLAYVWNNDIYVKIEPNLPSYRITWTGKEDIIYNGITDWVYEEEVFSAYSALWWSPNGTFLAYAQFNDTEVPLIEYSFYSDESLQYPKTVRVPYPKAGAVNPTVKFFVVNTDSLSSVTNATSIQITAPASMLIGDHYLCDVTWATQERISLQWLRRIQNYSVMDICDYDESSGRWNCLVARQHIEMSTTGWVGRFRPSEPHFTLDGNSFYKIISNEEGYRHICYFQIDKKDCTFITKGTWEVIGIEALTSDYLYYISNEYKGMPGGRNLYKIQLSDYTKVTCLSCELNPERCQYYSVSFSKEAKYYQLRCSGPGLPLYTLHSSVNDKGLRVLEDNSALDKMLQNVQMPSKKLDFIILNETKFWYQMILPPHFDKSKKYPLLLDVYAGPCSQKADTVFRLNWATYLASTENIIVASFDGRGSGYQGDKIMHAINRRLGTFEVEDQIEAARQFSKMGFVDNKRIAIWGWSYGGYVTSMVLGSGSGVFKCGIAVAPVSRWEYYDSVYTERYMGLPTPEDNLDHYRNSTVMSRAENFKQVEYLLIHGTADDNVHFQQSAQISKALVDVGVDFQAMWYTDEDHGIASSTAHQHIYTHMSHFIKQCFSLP
Experimental: as §1

[2] = Conversion of Val-Pro-PI 1 to PI 1 by bovine serum diluted in PBS; format: in vitro ADME; details: 2% bovine serum (BS) in PBS
Experimental: as §2, §3, §4, §5, §6

[3] = time not printed (preceding sentence: one hour)

T1 sequence (P81425 38-765): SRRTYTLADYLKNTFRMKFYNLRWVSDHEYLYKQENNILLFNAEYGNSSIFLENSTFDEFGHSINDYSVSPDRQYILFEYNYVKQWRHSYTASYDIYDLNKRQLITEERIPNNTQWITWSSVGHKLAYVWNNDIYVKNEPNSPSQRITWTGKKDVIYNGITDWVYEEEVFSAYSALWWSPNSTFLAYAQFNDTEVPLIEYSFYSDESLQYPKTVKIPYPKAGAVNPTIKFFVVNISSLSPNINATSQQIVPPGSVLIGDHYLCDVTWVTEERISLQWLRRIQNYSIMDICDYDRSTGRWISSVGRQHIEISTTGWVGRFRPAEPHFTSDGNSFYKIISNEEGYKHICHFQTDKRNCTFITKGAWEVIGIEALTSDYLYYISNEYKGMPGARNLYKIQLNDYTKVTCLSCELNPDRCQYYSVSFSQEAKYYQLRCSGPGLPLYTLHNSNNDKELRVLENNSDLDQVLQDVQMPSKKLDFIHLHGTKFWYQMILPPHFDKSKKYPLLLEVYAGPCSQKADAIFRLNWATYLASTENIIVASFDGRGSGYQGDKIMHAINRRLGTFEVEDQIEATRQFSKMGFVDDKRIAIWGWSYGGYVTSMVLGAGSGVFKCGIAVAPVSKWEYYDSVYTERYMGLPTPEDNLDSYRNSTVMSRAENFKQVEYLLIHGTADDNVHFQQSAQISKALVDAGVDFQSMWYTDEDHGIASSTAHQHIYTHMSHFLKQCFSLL

CC(C)CN(C[C@@H](O)[C@H](Cc1ccccc1)NC(=O)O[C@H]1CO[C@H]2OCC[C@H]21)S(=O)(=O)c1ccc(CNC(=O)[C@@H]2CCCN2C(=O)[C@@H](N)C(C)C)cc1 [Val-Pro-PI 1]
inhibition of conversion of GP-pNA to pNA (CD26 in bovine serum): even more efficiently inhibited
inhibition of release of pNA from GP-pNA (CD26; 20 μM Val-Pro-PI 1, 50 μM GP-pNA): could inhibit
competition with substrate GP-pNA for CD26 (CD26; 100 μM Val-Pro-PI 1, 50 μM GP-pNA): efficiently competed
compound hydrolyzed ([1]; after 4 hrs): 95%
conversion of Val-Pro-PI 1 to PI 1 [1, 3]: 25%
time to complete conversion of Val-Pro-PI 1 to PI 1 (purified CD26): ≤ 60 min
inhibition of GP-pNA conversion to pNA (CD26 in human serum): competitively inhibited
compound hydrolyzed ([2]; after 4 hrs): 35%
conversion of Val-Pro-PI 1 to PI 1 [2, 3]: 8%
